Where “and” joins values, the source holds several entries; their conditions need not be identical. Identical values can stand only once. Like-named read-outs stand apart in the source and are kept apart here.
Experiments:
Assay type in all cases: biochemical
[1] = molecular target: T1, recombinant 15-LOX enzyme (Homo sapiens, UniProt P16050); experiment: 15-LOX fluorescent assay; conditions: several values in one cell = repeat determinations
T1 sequence (P16050 1-662): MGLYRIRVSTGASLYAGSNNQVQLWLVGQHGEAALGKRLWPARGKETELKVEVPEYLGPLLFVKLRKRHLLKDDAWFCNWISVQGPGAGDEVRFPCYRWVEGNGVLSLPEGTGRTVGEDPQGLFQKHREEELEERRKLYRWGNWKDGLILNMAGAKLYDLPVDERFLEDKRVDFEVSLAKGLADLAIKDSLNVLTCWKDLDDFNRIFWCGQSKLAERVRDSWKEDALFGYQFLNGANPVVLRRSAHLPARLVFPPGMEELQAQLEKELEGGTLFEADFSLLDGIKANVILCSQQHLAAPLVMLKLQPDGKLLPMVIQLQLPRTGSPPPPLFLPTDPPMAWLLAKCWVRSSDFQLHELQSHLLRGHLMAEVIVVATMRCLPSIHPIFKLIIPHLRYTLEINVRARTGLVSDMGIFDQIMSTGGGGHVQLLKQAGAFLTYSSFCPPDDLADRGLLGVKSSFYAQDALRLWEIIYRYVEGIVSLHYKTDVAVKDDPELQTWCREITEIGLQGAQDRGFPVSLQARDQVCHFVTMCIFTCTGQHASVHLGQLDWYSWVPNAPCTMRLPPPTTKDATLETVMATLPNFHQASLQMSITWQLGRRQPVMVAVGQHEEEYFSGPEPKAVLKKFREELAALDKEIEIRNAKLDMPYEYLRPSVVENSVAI
Method: (§1) 12-LOX/15-LOX Fluorescent Assay
(§2) The enzyme assay (100 ul) contained 50 mM Tris, pH 7.5, 0.05% Tween-20, 20 μM AA/LA, 1 μM DHR123, and 100 nM recombinant 12-LOX enzyme/50 nM recombinant 15-LOX enzyme. Inhibitors (dissolved in DMSO) were plated at 1 μL into 96-well assay microplates followed by a 40 μL addition of a solution containing 12-LOX/15-LOX enzyme. Enzyme was pre-incubated with compounds for 15 mins. The assay was initiated by the addition of a 40 μL substrate solution containing AA/LA, and 20 μL addition of a solution containing DHR123. Enzymatic reaction proceeded for 30 min with kinetic reading at 500 nm excitation & 536 nm emission in SpectraMax Paradigm (MolecularDevice). Percent inhibition was calculated for each compound dose for IC50 curve fitting using 4 Parameter Logistic Model or Sigmoidal Dose-Response Model.

recombinant 5-LOX = molecular target: T2, recombinant 5-LOX (Homo sapiens, UniProt P09917); experiment: 5-LOX fluorescent assay; conditions: several values in one cell = repeat determinations; read-out: IC50 (μM) values for in vitro lipoxygenase inhibition, 5-LOX
T2 sequence (P09917 1-674): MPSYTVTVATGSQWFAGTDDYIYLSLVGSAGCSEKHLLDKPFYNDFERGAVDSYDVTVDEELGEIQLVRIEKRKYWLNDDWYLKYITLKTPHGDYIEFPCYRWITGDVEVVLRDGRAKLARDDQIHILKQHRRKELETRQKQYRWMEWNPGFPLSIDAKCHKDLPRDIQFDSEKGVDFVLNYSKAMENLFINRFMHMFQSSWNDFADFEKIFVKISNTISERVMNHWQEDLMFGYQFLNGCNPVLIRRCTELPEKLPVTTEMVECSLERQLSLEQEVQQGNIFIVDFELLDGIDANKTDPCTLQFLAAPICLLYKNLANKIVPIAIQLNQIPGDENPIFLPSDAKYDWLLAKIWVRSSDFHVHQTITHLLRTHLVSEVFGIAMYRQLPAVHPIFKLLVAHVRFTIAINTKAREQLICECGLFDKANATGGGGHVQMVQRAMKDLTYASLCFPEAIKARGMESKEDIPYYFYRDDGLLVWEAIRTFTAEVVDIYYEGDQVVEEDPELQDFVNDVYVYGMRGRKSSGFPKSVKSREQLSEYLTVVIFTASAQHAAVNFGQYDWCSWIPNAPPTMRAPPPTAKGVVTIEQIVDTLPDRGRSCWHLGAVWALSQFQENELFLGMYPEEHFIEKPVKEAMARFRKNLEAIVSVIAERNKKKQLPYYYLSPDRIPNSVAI
Method: 5-LOX FI assay Fluorescent Assay
The enzyme assay (100 μL) contained 50 mM Tris, pH 7.5, 0.1 mM EDTA, 0.3 mM CaCl2, 20 μM AA, 100 μM ATP, 1 μM DHR123, and recombinant 5-LOX cell lysate (0.5 μL/100 μL). Inhibitors (dissolved in DMSO) were plated at 1 μL into 96-well assay microplates followed by a 40 μL addition of a solution containing 5-LOX enzyme. Enzyme was pre-incubated with compounds for 15 mins. The assay was initiated by the addition of a 40 μL substrate solution containing AA and ATP, and 20 μL addition of a solution containing DHR123. Enzymatic reaction proceeded for 30 min with kinetic reading at 500 nm excitation & 536 nm emission in SpectraMax Paradigm (MolecularDevice). Percent inhibition was calculated for each compound dose for IC50 curve fitting using 4 Parameter Logistic Model or Sigmoidal Dose-Response Model.

[2] = molecular target: T3, recombinant 12-LOX enzyme (Homo sapiens, UniProt P18054); experiment: 12-LOX fluorescent assay; conditions: several values in one cell = repeat determinations
T3 sequence (P18054 1-663): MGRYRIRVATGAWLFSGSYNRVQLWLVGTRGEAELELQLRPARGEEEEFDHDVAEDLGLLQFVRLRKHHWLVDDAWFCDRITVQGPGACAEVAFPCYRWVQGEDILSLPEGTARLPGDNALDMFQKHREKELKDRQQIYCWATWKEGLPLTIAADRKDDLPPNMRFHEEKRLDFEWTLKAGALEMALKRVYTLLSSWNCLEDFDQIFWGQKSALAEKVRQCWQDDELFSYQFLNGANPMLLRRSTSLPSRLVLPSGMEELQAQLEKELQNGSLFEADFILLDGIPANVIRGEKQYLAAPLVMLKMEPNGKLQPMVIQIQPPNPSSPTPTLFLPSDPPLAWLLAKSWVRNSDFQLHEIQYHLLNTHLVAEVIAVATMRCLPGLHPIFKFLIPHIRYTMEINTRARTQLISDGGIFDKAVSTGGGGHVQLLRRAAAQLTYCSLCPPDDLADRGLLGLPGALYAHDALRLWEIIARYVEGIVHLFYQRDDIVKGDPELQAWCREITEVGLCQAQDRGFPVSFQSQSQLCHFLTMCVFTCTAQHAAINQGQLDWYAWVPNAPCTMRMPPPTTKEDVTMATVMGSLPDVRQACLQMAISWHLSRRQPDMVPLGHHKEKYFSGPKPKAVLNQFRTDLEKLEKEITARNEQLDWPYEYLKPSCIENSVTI
Method: as §1, §2

[3] = read-out: IC50 (μM) values for in vitro lipoxygenase inhibition, 15-LOX
[4] = read-out: IC50 (μM) values for in vitro lipoxygenase inhibition, 12-LOX
[5] = IC50 (μM) values for in vitro lipoxygenase inhibition, 15-LOX

| Compound | IC50 [1, 3] | IC50 (recombinant 5-LOX) | IC50 [2, 4] | IC50 [1, 5] | IC50 ([2]; IC50 (μM) values for in vitro lipoxygenase inhibition, 12-LOX) |
| --- | --- | --- | --- | --- | --- |
| COc1cccc2c1[nH]c1ccc(F)cc12 [SS20308-0002-01, 6-fluoro-1-methoxy-9H-carbazole] | 4.33 µM | 20.8 µM | 8.04 µM |  |  |
| CN(C)CCOc1c(O)ccc2c1[nH]c1ccc(F)cc12 [SS20308-0004-01, 1-(2-(dimethylamino)ethoxy)-6-fluoro-9H-carbazol-2-ol] | 2.55 µM |  | 3.19 µM |  |  |
| COc1ccc2c([nH]c3ccc(F)cc32)c1OCCN(C)C [SS20308-0007-01, 2-(6-fluoro-2-methoxy-9H-carbazol-1-yloxy)-N,N-dimethylethanamine] |  | 32.2 µM | 22 µM | 8.64 µM |  |
| CN(C)CCOc1c(Nc2ccccc2)ccc2c1[nH]c1ccc(F)cc12 [SS20308-0032-01, 1-(2-(dimethylamino)ethoxy)-6-fluoro-N-phenyl-9H-carbazol-2-amine] | 15.9 µM | 0.27 µM | 0.21 µM |  |  |
| CN(C)CCOc1c(NCc2ccccc2)ccc2c1[nH]c1ccc(F)cc12 [SS20308-0036-01, N-benzyl-1-(2-(dimethylamino)ethoxy)-6-fluoro-9H-carbazol-2-amine] | 0.8 µM | 0.35 µM | 0.4 µM |  |  |
| CN(C)CCOc1cccc2c1-c1[nH]c3ccccc3c1CS2 [SS20308-0046-01, 2-(6,11-dihydrothiochromeno[4,3-b]indol-1-yloxy)-N,N-dimethylethanamine] | 0.97 µM | 0.63 µM | 0.62 µM |  |  |
| CN(C)CCOc1c(NCc2ccccc2)ccc2c1[nH]c1ncccc12 [SS20308-0047-01, N-benzyl-8-(2-(dimethylamino)ethoxy)-9H-pyrido[2,3-b]indol-7-amine] |  | 0.36 µM and 0.82 µM | 0.36 µM and 0.49 µM | 1.13 µM and 1.93 µM |  |
| c1ccc2c(c1)[nH]c1c(OCCn3cncn3)c3c(cc12)[nH]c1ccccc13 [SS20308-0059-01, 6-(2-(1H-1,2,4-triazol-1-yl)ethoxy)-5,11-dihydroindolo[3,2-b]carbazole] |  | 0.04 µM and 0.03 µM |  | 0.03 µM and 0.02 µM | 0.03 µM and 0.02 µM |
| CN(C)CCCc1c2[nH]c3ccccc3c2cc2[nH]c3ccccc3c12 [SS20308-0104-01, 3-(5,11-dihydroindolo[3,2-b]carbazol-6-yl)-N,N-dimethylpropan-1-amine] |  |  |  | 0.02 µM |  |
| CN(C)CCCc1c2[nH]c3ccc(F)cc3c2c(F)c2[nH]c3ccc(F)cc3c12 [SS20308-0163-01, N,N-dimethyl-3-(2,8,12-trifluoro-5,11-dihydroindolo[3,2-b]carbazol-6-yl)propan-1-amine] |  | 20 nM (2×) and 40 nM and 50 nM and 10 nM |  |  |  |

Further lines, with some results ahead:

| IC50 [1, 3] | IC50 (recombinant 5-LOX) | IC50 [2, 4] | IC50 [1, 5] | Compound | IC50 ([2]; IC50 (μM) values for in vitro lipoxygenase inhibition, 12-LOX) |
| --- | --- | --- | --- | --- | --- |
| 3.49 µM | 6.06 µM | 2.85 µM |  | Cc1cc(OCCn2cncn2)c2[nH]c3ccccc3c2c1 [SS20308-0017-01, 1-(2-(1H-1,2,4-triazol-1-yl)ethoxy)-3-methyl-9H-carbazole] |  |
|  | 47 µM | 4.07 µM | 1.39 µM | c1ccc(-c2cc3c([nH]c4ccccc43)c(OCCn3cncn3)n2)cc1 [SS20308-0018-01] |  |
| 1.82 µM | 6.83 µM | 7.6 µM |  | CN(C)CCOc1cc(Oc2ccccc2)cc2c1[nH]c1ccc(F)cc12 [SS20308-0054-01] |  |
| 2.19 µM | 0.62 µM | 0.99 µM |  | c1ccc(N(CCCn2cncn2)c2ccc3c(c2)[nH]c2ccccc23)cc1 [SS20308-0060-01, N-(3-(1H-1,2,4-triazol-1-yl)propyl)-N-phenyl-9H-carbazol-2-amine] |  |
|  | 0.36 µM and 0.79 µM | 0.19 µM and 0.29 µM | 0.94 µM and 1.33 µM | c1ccc(-c2cc3c(cc2NCCn2cncn2)[nH]c2ccccc23)cc1 [SS20308-0061-01, N-(2-(1H-1,2,4-triazol-1-yl)ethyl)-3-phenyl-9H-carbazol-2-amine] |  |
|  |  | 30 nM and 40 nM (3×) |  | Fc1ccc2[nH]c3cc(-c4ccccc4)c(NCCn4cncn4)cc3c2c1 [SS20308-0094-01, N-(2-(1H-1,2,4-triazol-1-yl)ethyl)-6-fluoro-2-phenyl-9H-carbazol-3-amine] |  |
|  | 33 µM and > 1 µM |  |  | c1ccc(CN(CCCn2cncn2)c2ccc3[nH]c4ccccc4c3c2)cc1 [SS20308-0097-01, N-(3-(1H-1,2,4-triazol-1-yl)propyl)-N-benzyl-9H-carbazol-3-amine] |  |
|  |  | 0.05 µM and 0.11 µM | 0.02 µM and 0.04 µM | CN(C)CCOc1c2[nH]c3ccccc3c2c(F)c2[nH]c3ccccc3c12 [SS20308-0102-01, 2-(12-fluoro-5,11-dihydroindolo[3,2-b]carbazol-6-yloxy)-N,N-dimethylethanamine] |  |
|  | 0.55 µM and 0.26 µM and 0.35 µM |  | 1 µM and 0.41 µM and 0.86 µM | c1ccc(N(CCn2cncn2)c2ccc3[nH]c4ccccc4c3c2)cc1 [SS20308-0108-01, N-(2-(1H-1,2,4-triazol-1-yl)ethyl)-N-phenyl-9H-carbazol-3-amine] |  |
| 0.12 µM and 0.08 µM and 0.17 µM |  | 0.09 µM and 0.04 µM and 0.14 µM |  | CC(C)CCOc1cc2c3ccccc3[nH]c2c2[nH]c3ccccc3c12 [SS20308-0127-01, 5-(isopentyloxy)-11,12-dihydroindolo[2,3-a]carbazole] |  |
| 0.08 µM and 0.2 µM |  | 0.05 µM and 0.08 µM |  | c1ccc(-c2cc3c(cc2NCCn2cncn2)Nc2ccccc2CC3)cc1 [SS20308-0152-01, N-(2-(1H-1,2,4-triazol-1-yl)ethyl)-2-phenyl-10,11-dihydro-5H-dibenzo[b,f]azepin-3-amine] |  |
|  | 0.01 µM and 0.04 µM |  |  | CN(C)CCc1cc(Nc2ccc(Cl)cc2)cc2c1[nH]c1ccccc12 [SS20308-0257-01, N-(4-chlorophenyl)-1-(2-(dimethylamino)ethyl)-9H-carbazol-3-amine] |  |

— patent US20230174485A1, “LIPOXYGENASE INHIBITORS” (SRI International, priority 2020, published 2023)
